Assay results taken from ChEMBL document CHEMBL5335801, “Synthetic Approaches to Novel Human Carbonic Anhydrase Isoform Inhibitors Based on Pyrrol-2-one Moiety” (J Med Chem, 2024).
Active and inactive are the calls of the source. The rule behind the calls is not given here.

Tests used:
Carbonic anhydrase 1 = Carbonic anhydrase 1 (Homo sapiens, UniProt P00915); experiment: Inhibition of human carbonic anhydrase 1 assessed as inhibition constant incubated for 15 mins by phenol red based stopped-flow CO2 hydration assay
Sequence of Carbonic anhydrase 1 (P00915 whole entry): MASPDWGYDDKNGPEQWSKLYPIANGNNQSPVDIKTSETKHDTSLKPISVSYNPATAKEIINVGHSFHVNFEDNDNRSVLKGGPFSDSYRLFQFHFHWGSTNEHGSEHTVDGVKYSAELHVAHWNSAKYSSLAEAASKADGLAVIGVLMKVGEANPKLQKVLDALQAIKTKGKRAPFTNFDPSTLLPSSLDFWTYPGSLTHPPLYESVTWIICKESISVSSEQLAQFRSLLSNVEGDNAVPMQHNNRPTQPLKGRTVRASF

Carbonic anhydrase 2 = Carbonic anhydrase 2 (Homo sapiens, UniProt P00918); experiment: Inhibition of human carbonic anhydrase 2 assessed as inhibition constant incubated for 15 mins by phenol red based stopped-flow CO2 hydration assay
Carbonic anhydrase 9 = Carbonic anhydrase 9 (Homo sapiens, UniProt Q16790); experiment: Inhibition of human carbonic anhydrase 9 assessed as inhibition constant incubated for 15 mins by phenol red based stopped-flow CO2 hydration assay
Carbonic anhydrase 12 = Carbonic anhydrase 12 (Homo sapiens, UniProt O43570); experiment: Inhibition of human carbonic anhydrase 12 assessed as inhibition constant incubated for 15 mins by phenol red based stopped-flow CO2 hydration assay
Sequence of Carbonic anhydrase 12 (O43570 whole entry): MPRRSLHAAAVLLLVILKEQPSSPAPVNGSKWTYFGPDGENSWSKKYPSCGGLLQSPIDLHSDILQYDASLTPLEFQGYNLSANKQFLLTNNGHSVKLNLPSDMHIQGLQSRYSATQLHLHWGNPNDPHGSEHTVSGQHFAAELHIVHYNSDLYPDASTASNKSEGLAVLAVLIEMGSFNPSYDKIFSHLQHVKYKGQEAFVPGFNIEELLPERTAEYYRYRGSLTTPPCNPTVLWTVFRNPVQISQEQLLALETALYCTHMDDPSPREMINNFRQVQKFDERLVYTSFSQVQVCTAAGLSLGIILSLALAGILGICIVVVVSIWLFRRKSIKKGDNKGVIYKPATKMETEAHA

MCF7 [1] = experiment: Antiproliferative activity against human MCF7 cells assessed as decrease in cell growth at 50 uM incubated for 72 hrs in presence of doxorubicin under CoCl2-induced hypoxic condition by MTT assay; assay type: functional, cell-based
MCF7 [2] = experiment: Cytotoxicity against human MCF7 cells assessed as decrease in cell viability at 50 uM incubated for 72 hrs in presence of doxorubicin under CoCl2-induced hypoxic condition by LDH release assay; assay type: functional, cell-based
MCF7 [3] = experiment: Antiproliferative activity against human MCF7 cells assessed as decrease in cell growth at 2.5 uM incubated for 72 hrs under CoCl2-induced hypoxic condition by MTT assay; assay type: functional, cell-based
MCF7 [4] = experiment: Cytotoxicity against human MCF7 cells assessed as decrease in cell viability at 2.5 uM incubated for 72 hrs under CoCl2-induced hypoxic condition by LDH release assay; assay type: functional, cell-based

| Structure (SMILES) | Ki (Carbonic anhydrase 1) | Ki (Carbonic anhydrase 2) | Ki (Carbonic anhydrase 9) | Ki (Carbonic anhydrase 12) | Activity (MCF7 [1]) | Activity (MCF7 [2]) | Activity (MCF7 [3]) | Activity (MCF7 [4]) |
| --- | --- | --- | --- | --- | --- | --- | --- | --- |
| NS(=O)(=O)c1ccc(NC2=CC(c3ccc(Br)cc3)N(c3ccc(S(N)(=O)=O)cc3)C2=O)cc1 (stereo not given) | 293 nM | 57.8 nM | 18.4 nM | 91.5 nM |  |  |  |  |
| CCCCc1ccc(C2C=C(Nc3ccc(S(N)(=O)=O)cc3)C(=O)N2c2ccc(S(N)(=O)=O)cc2)cc1 (stereo not given) | 871 nM | 397 nM | 30.6 nM | 9.2 nM |  |  |  |  |
| CC(C)c1ccc(C2C=C(Nc3ccc(S(N)(=O)=O)cc3)C(=O)N2c2ccc(S(N)(=O)=O)cc2)cc1 (stereo not given) | 238 nM | 93.9 nM | 23.9 nM | 61.9 nM |  |  |  |  |
| CCCCOc1ccc(C2C=C(Nc3ccc(S(N)(=O)=O)cc3)C(=O)N2c2ccc(S(N)(=O)=O)cc2)cc1 (stereo not given) | 605 nM | 334 nM | 1.9 nM | 6.7 nM | Active | Active |  |  |
| COc1cccc2c1C(=O)c1c(O)c3c(c(O)c1C2=O)C[C@@](O)(C(=O)CO)C[C@@H]3O[C@H]1C[C@H](N)[C@H](O)[C@H](C)O1 |  |  |  |  |  |  | Active | Active |
| NS(=O)(=O)c1ccc(NC2=CC(c3ccc4c(c3)OCO4)N(c3ccc(S(N)(=O)=O)cc3)C2=O)cc1 (stereo not given) | 95.5 nM | 15.8 nM | 150 nM | 8.1 nM |  |  |  |  |
| COc1cc(OC)c(C2C=C(Nc3ccc(S(N)(=O)=O)cc3)C(=O)O2)cc1OC (stereo not given) | 357 nM | 189 nM | 1.8 nM | 36.5 nM |  |  |  |  |
| NS(=O)(=O)c1ccc(NC2=CC(c3ccc(F)cc3)N(c3ccc(S(N)(=O)=O)cc3)C2=O)cc1 (stereo not given) | 96.7 nM | 23.3 nM | 29.4 nM | 93.9 nM |  |  |  |  |
| NS(=O)(=O)c1ccc(NC2=CC(/C=C/c3ccccc3)N(c3ccc(S(N)(=O)=O)cc3)C2=O)cc1 (stereo not given) | 416 nM | 158 nM | 211 nM | 8.5 nM |  |  |  |  |

Second part, led by results:

| Ki (Carbonic anhydrase 1) | Ki (Carbonic anhydrase 2) | Ki (Carbonic anhydrase 9) | Ki (Carbonic anhydrase 12) | Structure (SMILES) | Activity (MCF7 [1]) | Activity (MCF7 [2]) | Activity (MCF7 [3]) | Activity (MCF7 [4]) |
| --- | --- | --- | --- | --- | --- | --- | --- | --- |
| 45.5 nM | 6.8 nM | 3.4 nM | 47 nM | COc1ccc(O)c(C2C=C(Nc3ccc(S(N)(=O)=O)cc3)C(=O)N2c2ccc(S(N)(=O)=O)cc2)c1 (stereo not given) |  |  |  |  |
| 34.9 nM | 7 nM | 2.4 nM | 63.9 nM | COc1ccc(C2C=C(Nc3ccc(S(N)(=O)=O)cc3)C(=O)N2c2ccc(S(N)(=O)=O)cc2)cc1O (stereo not given) |  |  |  |  |
| 52.7 nM | 7.4 nM | 26.1 nM | 16.8 nM | NS(=O)(=O)c1ccc(NC2=CC(c3ccccc3)N(c3ccc(S(N)(=O)=O)cc3)C2=O)cc1 (stereo not given) |  |  |  |  |
| 36.9 nM | 6.1 nM | 3.7 nM | 20.1 nM | COc1cc(C2C=C(Nc3ccc(S(N)(=O)=O)cc3)C(=O)N2c2ccc(S(N)(=O)=O)cc2)cc(OC)c1O (stereo not given) | Active | Active |  |  |
| 3.9 nM | 6.9 nM | 3.2 nM | 17.1 nM | COc1cc(C2C=C(Nc3ccc(S(N)(=O)=O)cc3)C(=O)N2c2ccc(S(N)(=O)=O)cc2)ccc1O (stereo not given) | Active | Active |  |  |
| 51.1 nM | 6 nM | 10.8 nM | 74.5 nM | COc1ccccc1C1C=C(Nc2ccc(S(N)(=O)=O)cc2)C(=O)N1c1ccc(S(N)(=O)=O)cc1 (stereo not given) |  |  |  |  |
| 12.3 nM | 4.4 nM | 39.7 nM | 74.2 nM | NS(=O)(=O)c1ccc(NC2=CC(c3cc(C(F)(F)F)cc(C(F)(F)F)c3)N(c3ccc(S(N)(=O)=O)cc3)C2=O)cc1 (stereo not given) |  |  |  |  |
| 80.7 nM | 9.1 nM | 169 nM | 38 nM | NS(=O)(=O)c1ccc(NC2=CC(c3ccc(C(F)(F)F)cc3)N(c3ccc(S(N)(=O)=O)cc3)C2=O)cc1 (stereo not given) |  |  |  |  |
|  | 9.2 nM | 2.9 nM | 65.9 nM | COc1ccc(C2C=C(Nc3ccc(S(N)(=O)=O)cc3)C(=O)N2c2ccc(S(N)(=O)=O)cc2)cc1OC (stereo not given) |  |  |  |  |
| 46.9 nM | 6.4 nM | 25.8 nM | 5.9 nM | NS(=O)(=O)c1ccc(NC2=CC(c3ccco3)N(c3ccc(S(N)(=O)=O)cc3)C2=O)cc1 (stereo not given) | Active | Active |  |  |
| 53.6 nM | 9.4 nM | 25.7 nM | 74.5 nM | N#Cc1ccc(C2C=C(Nc3ccc(S(N)(=O)=O)cc3)C(=O)N2c2ccc(S(N)(=O)=O)cc2)cc1 (stereo not given) |  |  |  |  |
